{"source": "patent US4968455A", "about": "“Tris(triorganotin) esters of trimeric fatty acids” (Schering Aktiengesellschaft, priority 1984, dated 1990)", "key": {"Proteus vulgaris": {"system": "Proteus vulgaris", "assay": "Overlay test, zones of inhibition, Proteus vulgaris", "assay_type": "cell-based", "conditions": "two days at 37° C."}, "[1]": {"assay": "Evaporation behavior: thermobalance tests", "assay_type": "physicochemical", "conditions": "products of Examples 1 and 2 based on 100%", "method": "(§1) Weight losses were determined after one week storage in a circulating-air dryer at 65° C. and tests with a thermobalance (onset of weight loss, and weight loss at 350° C.) were performed.\n(§2) The exact initial weight of the specimens (about 2 g) in glass Petri dishes (about 10 cm in diameter) is determined and the weight loss after treatment is determined by reweighing."}, "[2]": {"assay": "Evaporation behavior: weight loss after one week storage in a circulating-air dryer at 65° C.", "assay_type": "physicochemical", "conditions": "products of Examples 1 and 2 based on 100%", "method": "as §1, §2"}, "Bacillus mesentericus": {"system": "Bacillus mesentericus", "assay": "Overlay test, zones of inhibition, Bacillus mesentericus", "assay_type": "cell-based", "conditions": "two days at 37° C."}, "[3]": {"assay": "Water solubility in tap water (one week stirring, chloroform extraction, tin by atomic absorption spectroscopy)", "assay_type": "physicochemical", "conditions": "products of Examples 1 and 2 based on 100%, 10080 min", "method": "1 g of the substance to be tested was mixed in a beaker with 1 liter of tap water by stirring for one week. After settling and decanting, the organotin compounds dissolved in the water were extracted with chloroform. The tin concentrations were determined by atomic absorption spectroscopy."}, "[4]": {"assay": "Thermal stability, one hour treatment at 180° C. in open glass vessels", "assay_type": "physicochemical", "conditions": "tributyltin content not determinable", "method": "After prior methylation, the content of tributyltin compounds after a one hour treatment at 180° C. in open glass vessels was determined by gas chromatography."}, "Bacillus subtilis": {"system": "Bacillus subtilis", "assay": "Overlay test, zones of inhibition, Bacillus subtilis", "assay_type": "cell-based", "conditions": "two days at 37° C."}, "[5]": {"conditions": "0.10 wt. % tin (impregnating solution: TBTO 0.25; TBTL, TBTN 0.5; Ex. 1 1.0; Ex. 2 1.1 wt. %)"}, "[6]": {"conditions": "0.16 wt. % tin (impregnating solution: TBTO 0.4; TBTL, TBTN 0.8; Ex. 1 1.65; Ex. 2 1.7 wt. %)"}, "[7]": {"conditions": "0.24 wt. % tin (impregnating solution: TBTO 0.6; TBTL, TBTN 1.2; Ex. 1 2.45; Ex. 2 2.6 wt. %)"}, "[8]": {"conditions": "0.40 wt. % tin (impregnating solution: TBTO 1.0; TBTL, TBTN 2.0; Ex. 1 4.1; Ex. 2 4.3 wt. %)"}}, "data": [{"smiles": "CCC[CH2][Sn]([CH2]CCC)([CH2]CCC)[O][Sn]([CH2]CCC)([CH2]CCC)[CH2]CCC", "note": "[TBTO, tri-n-butyltin oxide]", "values": [{"measurement": "Zones of inhibition about the specimens, Proteus vulgaris", "setting": "Proteus vulgaris; [5]", "result": 3, "unit": "cm^2"}, {"measurement": "Zones of inhibition about the specimens, Proteus vulgaris", "setting": "Proteus vulgaris; [6]", "result": 6, "unit": "cm^2"}, {"measurement": "Zones of inhibition about the specimens, Proteus vulgaris", "setting": "Proteus vulgaris; [7]", "result": 9, "unit": "cm^2"}, {"measurement": "Zones of inhibition about the specimens, Proteus vulgaris", "setting": "Proteus vulgaris; [8]", "result": 12, "unit": "cm^2"}, {"measurement": "Thermobalance: Weight loss at 350° C.", "setting": "[1]; 350° C.", "result": 80, "unit": "%"}, {"measurement": "Thermobalance: Onset of weight loss", "setting": "[1]", "result": 75, "unit": "°C"}, {"measurement": "Weight loss after 7 days at 65° C.", "setting": "[2]", "result": 27.3, "unit": "%"}, {"measurement": "Zones of inhibition about the specimens, Bacillus mesentericus", "setting": "Bacillus mesentericus; [5]", "result": 5, "unit": "cm^2"}, {"measurement": "Zones of inhibition about the specimens, Bacillus mesentericus", "setting": "Bacillus mesentericus; [6]", "result": 8, "unit": "cm^2"}, {"measurement": "Zones of inhibition about the specimens, Bacillus mesentericus", "setting": "Bacillus mesentericus; [7]", "result": 14, "unit": "cm^2"}, {"measurement": "Zones of inhibition about the specimens, Bacillus mesentericus", "setting": "Bacillus mesentericus; [8]", "result": 20, "unit": "cm^2"}, {"measurement": "Water solubility", "setting": "[3]", "result": "24.0 mg/liter of water"}, {"measurement": "weight loss (1 hour at 180° C.)", "setting": "[4]", "result": 98, "unit": "%"}, {"measurement": "Zones of inhibition about the specimens, Bacillus subtilis", "setting": "Bacillus subtilis; [5]", "result": 6, "unit": "cm^2"}, {"measurement": "Zones of inhibition about the specimens, Bacillus subtilis", "setting": "Bacillus subtilis; [6]", "result": 13, "unit": "cm^2"}, {"measurement": "Zones of inhibition about the specimens, Bacillus subtilis", "setting": "Bacillus subtilis; [7]", "result": 18, "unit": "cm^2"}, {"measurement": "Zones of inhibition about the specimens, Bacillus subtilis", "setting": "Bacillus subtilis; [8]", "result": 20, "unit": "cm^2"}]}]}
